# Laboratory results as given in US10350273B2, “Treatment of hormonal disorders of growth” (The United States of America, as represented by the …, priority 2014, dated 2019).
# Entries after “also recorded” stand apart in the source; their conditions may differ. Numbered stars: 1 amine (or outer) side, 2 acyl side, 3 side chain; on linkers, the order of the positions; unused ones are H or OH. Square brackets hold non-standard residues; d marks the D form. Side chains are listed from the residue outwards. Ends that are not written are not given here. Peptide text beside a SMILES is read from it. * marks the point of attachment. Ethylenediamine = C(CN[*:2])N[*:1]; Hyp = O=C(O)[C@@H]1C[C@@H](O)CN1; Phg = N[C@H](C(=O)O)c1ccccc1; CO = O=C([*:1])[*:2]; Bn = c1ccc(C*)cc1
# Tests used:
# [1] = system: somatotroph cells; experiment: GH secretion by primary pituitary tumor cell culture of an X-LAG patient; format: cell-based, human; conditions: for effect on GH secretion (in words): X-LAG pituitary tumor cell culture, dose range; for GH change compared to control wells: overnight incubation; for GH response on co-incubation with GHRH: co-incubation with GHRH 10^−10M
# Method: (§1) A surgical sample of the human pituitary adenoma of the patient mentioned in example 11 in Dulbecco's modified Eagle's medium (DMEM) was dissociated mechanically and enzymatically as described by Jaquet et al. (Hormonal regulation of prolactin release by human prolactinoma cells cultured in serum-free conditions. Horm Res 22 153-163, 1985). A sample of the medium in the postoperative sample was retained before further preparation. A total of 50,000 tumor cells per well were plated in 24 well plates coated with extracellular matrix from bovine endothelial corneal cells required for cell adhesion. The cells were cultured in DMEM depleted of L-Valine (D-Valine-DMEM) to block fibroblast proliferation, supplemented with 10% fetal calf serum, penicillin (100 U/ml), streptomycin (100 μg/ml), and glutamine ([…]) at 37° C. in a water-saturated atmosphere containing 7% CO2. After 48 h, culture medium was changed to D-Valine DMEM containing 1% ITS (Insulin Transferin Selenium) and 1% fetal calf serum for another 48 h. Cells were incubated with drugs at a range of concentrations (10^−12-10^−7 mol/L) for 16 h (overnight). All the experiments were performed in triplicate. The medium was collected and stored frozen for GH and PRL measurements.
# (§2) The somatostatin analogs (SSAs), octreotide and pasireotide were purchased from Novartis (Basel, Switzerland), Forskolin was obtained from Sigma-Aldrich (St. Quentin Fallavier, France), Cabergoline was obtained from Pfizer (Pharmacia & Upjohn Kalamazoo, USA), MK-0677 (ghrelin analog) was obtained from Europeptide, Argenteuil France, and MSP (ghrelin receptor-GHS-R inverse agonist) came from Polypeptide Laboratories (Strasbourg, France). The GHRH receptor antagonist, acetyl-(D-Arg^2)-GHRH(1-29) amide, and GnRH1-5 were obtained from Bachem, Europe.
# (§3) GH secretion by the primary culture cells was quantified using the ALPHALISA® human growth hormone GH kit (Perkin Elmer USA). Prolactin levels were measured in culture medium using a commercial IRMA kit (PRL IRMA Kit-Beckman Coulter Immunotech, Marseille, France). Human GHRH concentrations in plasma were measured using an in-house double-antibody radio-immunoassay as described previously and using a standard solution of Stimu-GH 50 μg (Ferring) and the matrix was non-used culture medium (Girard et al.; Eur. J. Clin. Pharmacol., 32, 507-513, 1987).
# [2] = system: somatotroph cells; experiment: Prolactin (PRL) secretion by primary pituitary tumor cell culture of an X-LAG patient; format: cell-based, human; conditions: for PRL change compared to control wells: overnight incubation, mean±SEM; for effect on prolactin secretion (in words): X-LAG pituitary tumor cell culture, dose range; for PRL response on co-incubation with GHRH: co-incubation with GHRH 10^−10M
# Method: as §1, §2, §3
# [3] = system: X-LAG patients; experiment: Clinical treatment of X-LAG patients; format: in vivo, human; conditions: for hormonal or growth control: X-LAG patients; for IGF-1 levels under treatment: octreotide 150 mcg sc t.i.d. together with cabergoline 0.5 mg/week, one patient
# Text: Among the nine patients who underwent primary surgical resection, three had immediate GH/PRL control and excessive growth was halted. For those patients in whom growth and GH secretion were not controlled by their initial surgery, the subsequent management was complex. […] Therefore, it can be concluded that the GH receptor antagonist pegvisomant represents a useful option for IGF-1 and growth control.
# The patient was a person with no family history of growth disorders. […] […] the patient began to grow excessively in terms of length and weight, exceeding the 97th percentile of their growth charts […]. […] A random level of GHRH was raised, although no potential ectopic sources were identified. […] As chronic treatment with somatostatin analogs and dopamine agonists for 12 months had no effect on the patient's excessive growth and their pituitary lesion began impinging on the optic chiasm, the patient was referred for neurosurgical treatment.
# [4] = system: somatotroph cells; experiment: GH secretion by primary pituitary tumor cell culture of an X-LAG patient; format: cell-based, human; conditions: 10^−13 M, overnight incubation, mean±SEM
# [5] = system: pituitary; conditions: cited from earlier work
# [6] = system: sporadic X-LAG patient; experiment: Dynamic pituitary hormone tests (TRH test, GnRH test) in the X-LAG patient; format: in vivo, human
# Text: Fluctuations in elevated GHRH levels also occurred, and these were partially but not completely in phase with alterations in GH. While the elevated prolactin levels varied by less than +7% from baseline throughout the study, changes in GH levels were more marked (−23.6% to +61.5%).
# [7] = system: cAMP production; experiment: cAMP assay (HTRF-cAMP Femto Kit) in cells from the tumor; format: cell-based, human; conditions: 10^−6M, 3 h, 37° C.
# Method: Following the pharmacological co-incubation studies described in Example 13 the response of the tumor cells in terms of cAMP production was assessed. The cells from tumor were seeded into 24-well plates (4×10^4 cells/well). After 24 h in culture, the cAMP concentration was determined using the HTRF-cAMP Femto Kit (CisBio International, Bagnols-sur-Cèze, France), as described previously Cuny et al. (Mol Cell Endocrinol 355, 106-113, 2012). According to the manufacturer's protocol, the cells were detached using trypsin, seeded onto 96-well plates in suspension, and incubated at 37° C. for 3 h in the presence of forskolin. The HTRF assay reagents were then added directly into the 96-well plates.
# [8] = listed as acetyl-(D-Arg^2)-GHRH(1-29)
# [9] = TRH 125 μg IV or GnRH 25 μg IV, 0, 15, 30 and 90 minutes
compound,measurement,setting,value
C[C@@H](O)[C@@H]1NC(=O)[C@H](CCCCN)NC(=O)[C@@H](Cc2c[nH]c3ccccc23)NC(=O)[C@H](Cc2ccccc2)NC(=O)[C@@H](NC(=O)[C@H](N)Cc2ccccc2)CSSC[C@@H](C(=O)N[C@H](CO)[C@@H](C)O)NC1=O [octreotide],effect on GH secretion (in words),[1],no inhibitory effect on GH or prolactin; also recorded: no inhibition in GH secretion
same,PRL change compared to control wells,[2]; 10^−9M,−26±0.03%
same,effect on prolactin secretion (in words),[2],no inhibitory effect on GH or prolactin
same,hormonal or growth control,[3],did not lead to hormonal or growth control
same,IGF-1 levels under treatment,[3],remained consistently elevated
acetyl-(D-Arg^2)-GHRH(1-29) amide (Ac-Y[dR]DAIFTNSYRKVLGQLSARKLLQDIMSR-NH2; SMILES CC[C@H](C)[C@H](NC(=O)[C@H](C)NC(=O)[C@H](CC(=O)O)NC(=O)[C@@H](CCCNC(=N)N)NC(=O)[C@H](Cc1ccc(O)cc1)NC(C)=O)C(=O)N[C@@H](Cc1ccccc1)C(=O)N[C@H](C(=O)N[C@@H](CC(N)=O)C(=O)N[C@@H](CO)C(=O)N[C@@H](Cc1ccc(O)cc1)C(=O)N[C@@H](CCCNC(=N)N)C(=O)N[C@@H](CCCCN)C(=O)N[C@H](C(=O)N[C@@H](CC(C)C)C(=O)NCC(=O)N[C@@H](CCC(N)=O)C(=O)N[C@@H](CC(C)C)C(=O)N[C@@H](CO)C(=O)N[C@@H](C)C(=O)N[C@@H](CCCNC(=N)N)C(=O)N[C@@H](CCCCN)C(=O)N[C@@H](CC(C)C)C(=O)N[C@@H](CC(C)C)C(=O)N[C@@H](CCC(N)=O)C(=O)N[C@@H](CC(=O)O)C(=O)N[C@H](C(=O)N[C@@H](CCSC)C(=O)N[C@@H](CO)C(=O)N[C@@H](CCCNC(=N)N)C(N)=O)[C@@H](C)CC)C(C)C)[C@@H](C)O) [acetyl-(D-Arg^2)-GHRH (1-29) amide],GH change compared to control wells,"[1]; 10^−11M, mean±SEM",+13±1.9%
same,effect on GH secretion (in words),[1],reduce basal and stimulated GH and prolactin secretion in a dose dependent manner
same,GH response on co-incubation with GHRH,[1],complete abolition
same,GH response on co-incubation with GHRH,[1]; [8],abolished the stimulatory effect of GHRH itself
same,GH change compared to control wells,[1]; highest GHRH-receptor antagonist dose studied,approximately −34±1.9%
same,PRL change compared to control wells,[2]; 10^−8M,−73±0.1%
same,effect on prolactin secretion (in words),[2],reduce basal and stimulated GH and prolactin secretion in a dose dependent manner
same,PRL response on co-incubation with GHRH,[2],complete abolition
same,PRL response on co-incubation with GHRH,[2]; [8],abolished the stimulatory effect of GHRH itself
same,GH change compared to control wells,[4],+18±0.8%
CC(C)[C@@H]1NC(=O)[C@H](CCCCN)NC(=O)[C@@H](Cc2c[nH]c3ccccc23)NC(=O)[C@H](Cc2ccc(O)cc2)NC(=O)[C@@H](NC(=O)[C@H](N)Cc2ccc3ccccc3c2)CSSC[C@@H](C(=O)N[C@H](C(N)=O)[C@@H](C)O)NC1=O [lanreotide],hormonal or growth control,[3],did not lead to hormonal or growth control
Tyr-Ala-Asp-Ala-Ile-Phe-Thr-Asn-Ser-Tyr-Arg-Lys-Val-Leu-Gly-Gln-Leu-Ser-Ala-Arg-Lys-Leu-Leu-Gln-Asp-Ile-Met-Ser-Arg-NH2 [GHRH(1-29)],potency relative to native GHRH,[5],≥ 50%
"GnRH: gonadotropin-releasing hormone, 25 μg IV GnRH (HRF-AYERST) (QHWSYGLRPG; not fully specified (residue 1, C-terminus); UniProt P01148 24-33, looked up)",GH level after GnRH administration,"[6]; 25 μg IV GnRH, baseline GH 212 ng/mL",50 ng/mL
same,GH response (in words),[6]; [9],suppression of GH levels at 30 mins
same,GHRH level response (in words),[6]; [9],not markedly altered; also recorded: GHRH levels remained unaltered; also recorded: remained elevated throughout
same,prolactin response (in words),[6]; [9],prolactin rose mildly
pegvisomant,control of IGF1 (and growth),[3]; postoperative use in X-LAG patients,control of IGF1 in all five X-LAG patients; also recorded: control of IGF1 and excessive growth in three patients
NCCCC[C@@H]1NC(=O)[C@@H](Cc2c[nH]c3ccccc23)NC(=O)[C@H](c2ccccc2)NC(=O)[C@@H]2C[C@@H](OC(=O)NCCN)CN2C(=O)[C@H](Cc2ccccc2)NC(=O)[C@H](Cc2ccc(OCc3ccccc3)cc2)NC1=O [pasireotide] (cyclo([Hyp]([CO-Ethylenediamine])[Phg][dW]KY(Bn)F)),GH change compared to control wells,"[1]; 10^−8M, mean±SEM",−18±0.6%
same,effect on GH secretion (in words),[1],small inhibitory effect on GH secretion
same,effect on prolactin secretion (in words),[2],no effect on prolactin secretion
CC(C)(N)C(=O)N[C@H](COCc1ccccc1)C(=O)N1CCC2(CC1)CN(S(C)(=O)=O)c1ccccc12 [MK-0677],GH change compared to control wells,"[1]; concentration not given, mean±SEM",+15±0.5%
same,effect on prolactin secretion (in words),[2],no effect on prolactin secretion
Ghrelin,effect on GH secretion (in words),[1],minor stimulatory effect on GH secretion
C=CCN1C[C@H](C(=O)N(CCCN(C)C)C(=O)NCC)C[C@@H]2c3cccc4[nH]cc(c34)C[C@H]21 [cabergoline],GH change compared to control wells,"[1]; 10^−8M, mean±SEM",−32±0.8%
same,PRL change compared to control wells,[2]; concentration not given,−15±0.04%
same,IGF-1 levels under treatment,[3],remained consistently elevated
"GnRH1-5: fragment of gonadotropin-releasing hormone, putative GPR101 agonist (QHWSY; ends and bridges not checked)",GH change compared to control wells,"[1]; 10^−10 M, mean±SEM",+15±1.5%
same,effect on GH secretion (in words),[1],little effect on GH
same,effect on prolactin secretion (in words),[2],did not stimulate prolactin release
GHRH: Human GHRH (hGHRH) peptide is comprised of 44 amino acid residues (YADAIFTNSYRKVLGQLSARKLLQDIMSRQQGESNQERGARARL),GH change compared to control wells,"[1]; 10^−10 M, mean±SEM",+41±0.4%
same,effect on GH secretion (in words),[1],further stimulated
same,PRL change compared to control wells,[2]; 10^−8M,+11±0.4%
same,effect on prolactin secretion (in words),[2],further stimulated
C=C[C@@]1(C)CC(=O)[C@]2(O)[C@@]3(C)[C@@H](O)CCC(C)(C)[C@@H]3[C@H](O)[C@H](OC(C)=O)[C@@]2(C)O1 [forskolin],rise in cAMP production compared with controls,[7],+396±1.9%
